Experimental data from US11974985B2, “Composition of aminopyran derivative” (HAISCO PHARMACEUTICAL GROUP CO., LTD., priority 2018, dated 2024).

Test: Compatibility test of compound of formula (I) with lactose, change of impurities
Type: physicochemical
Conditions: room temperature
Protocol: A compatibility test was carried out with lactose (a reducing sugar) and the compound of formula (I) at room temperature in which, after both were mixed in a certain ratio, the changes of impurity in the compound of formula (I) were tested.

## CS(=O)(=O)n1cc2c(n1)CN([C@@H]1C[C@H](N)[C@@H](c3cc(F)ccc3F)O[C@@H]1C(F)(F)F)C2 [Compound of formula (I)]
  Main peak area (%): 99.247%
  Number of impurities: 5
  Total impurities (%): 0.753%
